Results published in patent US20140058103A1, “Inhibitors of PI3K-Delta and Methods of Their Use and Manufacture” (Exelixis, Inc., priority 2010, published 2014).

Each compound was assayed against PI3K delta (Homo sapiens, UniProt O00329) (assay: Luciferase-coupled chemiluminescence kinase assay (ATP consumption, KinaseGlo)).
PI3K delta, sequence (O00329 whole entry): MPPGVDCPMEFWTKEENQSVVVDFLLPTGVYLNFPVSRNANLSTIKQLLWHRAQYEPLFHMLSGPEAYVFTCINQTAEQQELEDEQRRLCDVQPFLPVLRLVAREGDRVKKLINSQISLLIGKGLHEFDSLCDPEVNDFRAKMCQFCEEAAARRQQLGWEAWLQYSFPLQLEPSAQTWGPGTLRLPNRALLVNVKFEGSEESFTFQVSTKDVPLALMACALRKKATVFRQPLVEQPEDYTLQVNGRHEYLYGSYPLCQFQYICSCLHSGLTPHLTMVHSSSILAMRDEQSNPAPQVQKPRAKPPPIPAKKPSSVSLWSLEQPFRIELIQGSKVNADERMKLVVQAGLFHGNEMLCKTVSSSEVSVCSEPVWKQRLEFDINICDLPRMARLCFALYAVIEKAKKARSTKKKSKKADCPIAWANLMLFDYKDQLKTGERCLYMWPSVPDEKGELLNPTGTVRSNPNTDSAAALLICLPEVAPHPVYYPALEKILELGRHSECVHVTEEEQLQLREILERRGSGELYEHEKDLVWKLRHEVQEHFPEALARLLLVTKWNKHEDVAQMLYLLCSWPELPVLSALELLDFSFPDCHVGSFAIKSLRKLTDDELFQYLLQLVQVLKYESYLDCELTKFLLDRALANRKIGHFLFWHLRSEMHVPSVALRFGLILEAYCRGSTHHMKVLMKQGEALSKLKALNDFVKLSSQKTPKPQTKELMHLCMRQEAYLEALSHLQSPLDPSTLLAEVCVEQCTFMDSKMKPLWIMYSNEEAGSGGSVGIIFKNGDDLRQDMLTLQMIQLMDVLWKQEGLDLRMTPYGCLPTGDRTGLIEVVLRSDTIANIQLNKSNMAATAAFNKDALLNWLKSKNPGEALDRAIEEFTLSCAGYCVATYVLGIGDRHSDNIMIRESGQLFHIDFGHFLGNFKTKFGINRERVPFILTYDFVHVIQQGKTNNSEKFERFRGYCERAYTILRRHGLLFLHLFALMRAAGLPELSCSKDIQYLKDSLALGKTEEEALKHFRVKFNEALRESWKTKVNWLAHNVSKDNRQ
PI3K delta, sequence (P27986 whole entry partner): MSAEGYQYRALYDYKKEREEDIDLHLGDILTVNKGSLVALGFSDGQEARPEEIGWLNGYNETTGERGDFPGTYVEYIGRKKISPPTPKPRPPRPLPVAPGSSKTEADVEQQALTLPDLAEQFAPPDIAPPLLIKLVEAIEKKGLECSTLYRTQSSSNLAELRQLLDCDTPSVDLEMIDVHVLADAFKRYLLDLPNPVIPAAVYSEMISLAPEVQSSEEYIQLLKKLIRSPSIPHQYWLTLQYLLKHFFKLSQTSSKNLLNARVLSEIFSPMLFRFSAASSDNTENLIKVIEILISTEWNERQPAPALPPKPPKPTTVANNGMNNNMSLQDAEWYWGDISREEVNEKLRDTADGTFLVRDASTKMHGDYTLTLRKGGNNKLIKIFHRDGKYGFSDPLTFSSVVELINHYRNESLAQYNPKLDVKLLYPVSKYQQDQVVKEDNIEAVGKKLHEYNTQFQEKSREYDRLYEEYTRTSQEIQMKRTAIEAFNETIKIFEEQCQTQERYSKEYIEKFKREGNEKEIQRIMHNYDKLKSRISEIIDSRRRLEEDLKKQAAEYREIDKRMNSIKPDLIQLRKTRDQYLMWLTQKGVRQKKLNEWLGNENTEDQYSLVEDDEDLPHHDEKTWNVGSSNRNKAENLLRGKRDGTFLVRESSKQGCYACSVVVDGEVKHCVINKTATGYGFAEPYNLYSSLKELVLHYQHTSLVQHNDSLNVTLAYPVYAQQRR
Type: biochemical
Outline: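 Compound, kinase and ATP (≤ KM) reacted 2 h at ambient temperature, then remaining ATP quantified with luciferase-luciferin (KinaseGlo) luminescence as percent consumed.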
In the case of `Cn1cc(-c2nc3c(N4CC[C@@H](n5c(=O)[nH]c6ccccc65)[C@H](CO)C4)ncnc3n2C)cn1` [Compound 338, 1-{(3R,4R)-3-(hydroxymethyl)-1-[9-methyl-8-(1-methyl-1H-pyrazol-4-yl)-9H-purin-6-yl]piperidin-4-yl}-1,3-dihydro-2H-benzimidazol-2-one], the IC50 is reported as 50 to 250 nM. `Cn1c(C(=O)NCC2CC2)nc2c(N3CCC(n4c(=O)[nH]c5ccc(Cl)cc54)CC3)ncnc21` [Compound 229, 6-[4-(6-chloro-2-oxo-2,3-dihydro-1H-benzimidazol-1-yl)piperidin-1-yl]-N-(cyclopropylmethyl)-9-methyl-9H-purine-8-carboxamide] was tested, and the IC50 was 500 to 1500 nM. `Cn1c(C(=O)NC2CCC2)nc2c(N3CCC4(CC3)C(=O)Nc3ccccc34)ncnc21` [Compound 15, N-cyclobutyl-9-methyl-6-(2-oxo-1,2-dihydro-1′H-spiro[indole-3,4′-piperidin]-1′-yl)-9H-purine-8-carboxamide] showed an IC50 of 50 to 250 nM. Work on `Cn1c(C(=O)NCC2CC2)nc2c(N3CC[C@H](c4ccccc4)[C@@H](O)C3)ncnc21` [Compound 235, N-(cyclopropylmethyl)-6-[(3R,4R)-3-hydroxy-4-phenylpiperidin-1-yl]-9-methyl-9H-purine-8-carboxamide] yielded an IC50 of 500 to 1500 nM. Compound `CCn1ncc(-c2nc3c(N4CCC(n5c(=O)[nH]c6ncccc65)CC4)ncnc3n2C)c1C` [Compound 337, 1-{1-[8-(1-ethyl-5-methyl-1H-pyrazol-4-yl)-9-methyl-9H-purin-6-yl]piperidin-4-yl}-1,3-dihydro-2H-imidazo[4,5-b]pyridin-2-one] has an IC50 of less than 50 nM. For `CCNC(=O)c1nc2c(N3CCC(n4c(=O)[nH]c5ccccc54)CC3)ncnc2n1CC` [Compound 192, N,9-diethyl-6-[4-(2-oxo-2,3-dihydro-1H-benzimidazol-1-yl)piperidin-1-yl]-9H-purine-8-carboxamide], the IC50 was 50 to 250 nM. In the case of `CCn1c(-c2nnc(C3CC3)o2)nc2c(N3CCC4(CC3)C(=O)Nc3ccccc34)ncnc21` [Compound 210, 1′-[8-(5-cyclopropyl-1,3,4-oxadiazol-2-yl)-9-ethyl-9H-purin-6-yl]spiro[indole-3,4′-piperidin]-2(1H)-one], the IC50 is reported as less than 50 nM. `Cn1c(-c2ccc(C(F)(F)F)nc2)nc2c(N3CCC(n4c(=O)[nH]c5ncccc54)CC3)ncnc21` [Compound 315, 1-(1-{9-methyl-8-[6-(trifluoromethyl)pyridin-3-yl]-9H-purin-6-yl}piperidin-4-yl)-1,3-dihydro-2H-imidazo[4,5-b]pyridin-2-one] showed an IC50 of less than 50 nM. `CCn1c(C(=O)NCCCCO)nc2c(N3CCC4(CC3)C(=O)Nc3ccccc34)ncnc21` [Compound 222, 9-ethyl-N-(4-hydroxybutyl)-6-(2-oxo-1,2-dihydro-1′H-spiro[indole-3,4′-piperidin]-1′-yl)-9H-purine-8-carboxamide] gave an IC50 of 50 to 250 nM. For `CCCCNC(=O)c1nc2c(N3CCC4(CC3)C(=O)Nc3ccccc34)ncnc2n1C` [Compound 16, N-butyl-9-methyl-6-(2-oxo-1,2-dihydro-1′H-spiro[indole-3,4′-piperidin]-1′-yl)-9H-purine-8-carboxamide], the IC50 was 50 to 250 nM. Work on `Cn1c(C(=O)N2CC(O)C2)nc2c(N3CCC4(CC3)C(=O)Nc3ccccc34)ncnc21` [Compound 41, 1′-{8-[(3-hydroxyazetidin-1-yl)carbonyl]-9-methyl-9H-purin-6-yl}spiro[indole-3,4′-piperidin]-2(1H)-one] yielded an IC50 of 50 to 250 nM. Work on `CCn1c(C(=O)NC2CCC2)nc2c(N3CCC(n4c(=O)[nH]c5ccccc54)CC3)ncnc21` [Compound 194, N-cyclobutyl-9-ethyl-6-[4-(2-oxo-2,3-dihydro-1H-benzimidazol-1-yl)piperidin-1-yl]-9H-purine-8-carboxamide] yielded an IC50 of less than 50 nM. `CC(C)c1nnc(-c2nc3c(N4CCC5(CC4)C(=O)Nc4ccccc45)ncnc3n2C)o1` [Compound 174, 1′-{9-methyl-8-[5-(1-methylethyl)-1,3,4-oxadiazol-2-yl]-9H-purin-6-yl}spiro[indole-3,4′-piperidin]-2(1H)-one] showed an IC50 of less than 50 nM. In the case of `Cn1c(-c2cocn2)nc2c(N3CCC(n4c(=O)[nH]c5ccccc54)CC3)ncnc21` [Compound 179, 1-{1-[9-methyl-8-(1,3-oxazol-4-yl)-9H-purin-6-yl]piperidin-4-yl}-1,3-dihydro-2H-benzimidazol-2-one], the IC50 is reported as 500 to 1500 nM. For `Cc1cncc(-c2nc3c(N4CCC(n5c(=O)[nH]c6ccccc65)CC4)ncnc3n2C)c1` [Compound 282, 1-{1-[9-methyl-8-(5-methylpyridin-3-yl)-9H-purin-6-yl]piperidin-4-yl}-1,3-dihydro-2H-benzimidazol-2-one], the IC50 was less than 50 nM. For `Cn1c(-c2ccc(C(F)(F)F)nc2)nc2c(N3CCC(n4c(=O)[nH]c5ccccc54)CC3)ncnc21` [Compound 279, 1-(1-{9-methyl-8-[6-(trifluoromethyl)pyridin-3-yl]-9H-purin-6-yl}piperidin-4-yl)-1,3-dihydro-2H-benzimidazol-2-one], the IC50 was less than 50 nM. `Cn1c(C(=O)NCC2CC2)nc2c(N3CCC(O)(c4ccccc4)CC3)ncnc21` [Compound 3, N-(cyclopropylmethyl)-6-(4-hydroxy-4-phenylpiperidin-1-yl)-9-methyl-9H-purine-8-carboxamide] showed an IC50 of 50 to 250 nM. Work on `CCCCNC(=O)c1nc2c(N3CCC4(CC3)C(=O)Nc3ccccc34)ncnc2n1CC` [Compound 162, N-butyl-9-ethyl-6-(2-oxo-1,2-dihydro-1′H-spiro[indole-3,4′-piperidin]-1′-yl)-9H-purine-8-carboxamide] yielded an IC50 of less than 50 nM. Compound `CCc1nc2c(N3CCC(n4c(=O)[nH]c5ccccc54)CC3)ncnc2n1C` [Compound 92, 1-[1-(8-ethyl-9-methyl-9H-purin-6-yl)piperidin-4-yl]-1,3-dihydro-2H-benzimidazol-2-one] has an IC50 of 500 to 1500 nM. `CCn1cc(-c2nc3c(N4CCC(n5c(=O)[nH]c6ccccc65)CC4)ncnc3n2CC)cn1` [Compound 244, 1-{1-[9-ethyl-8-(1-ethyl-1H-pyrazol-4-yl)-9H-purin-6-yl]piperidin-4-yl}-1,3-dihydro-2H-benzimidazol-2-one] gave an IC50 of less than 50 nM. Work on `Cn1cc(-c2nc3c(N4CCN(S(=O)(=O)c5cccc(C(F)(F)F)c5)CC4)ncnc3n2C)cn1` [Compound 377, 9-methyl-8-(1-methyl-1H-pyrazol-4-yl)-6-(4-{[3-(trifluoromethyl)phenyl]sulfonyl}-piperazin-1-yl)-9H-purine] yielded an IC50 of 250 to 500 nM. In the case of `Cn1c(C(=O)NCC2CC2)nc2c(N3CCC4(CC3)NC(=O)c3ccccc34)ncnc21` [Compound 142, N-(cyclopropylmethyl)-9-methyl-6-(3-oxo-2,3-dihydro-1′H-spiro[isoindole-1,4′-piperidir]-1′-yl)-9H-purine-8-carboxamide], the IC50 is reported as 500 to 1500 nM. `Cn1cc(-c2nc3c(N4CCN(S(=O)(=O)c5ccccc5C#N)CC4)ncnc3n2C)cn1` [Compound 381, 2-({4-[9-methyl-8-(1-methyl-1H-pyrazol-4-yl)-9H-purin-6-yl]piperazin-1-yl}sulfonyl)benzonitrile] gave an IC50 of 250 to 500 nM. Work on `CCn1c(-c2ccc(C(F)(F)F)nc2)nc2c(N3CCC4(CC3)C(=O)Nc3ccccc34)ncnc21` [Compound 324, 1′-{9-ethyl-8-[6-(trifluoromethyl)pyridin-3-yl]-9H-purin-6-yl}spiro[indole-3,4′-piperidin]-2(1H)-one] yielded an IC50 of less than 50 nM. `Cn1c(C(=O)N2CC(O)C2)nc2c(N3CCC(n4c(=O)[nH]c5ccccc54)CC3)ncnc21` [Compound 74, 1-(1-{8-[(3-hydroxyazetidin-1-yl)carbonyl]-9-methyl-9H-purin-6-yl}piperidin-4-yl)-1,3-dihydro-2H-benzimidazol-2-one] gave an IC50 of 50 to 250 nM. `Cn1c(-c2cn[nH]c2)nc2c(N3CCC4(CC3)C(=O)Nc3ccccc34)ncnc21` [Compound 238, 1′-[9-methyl-8-(1H-pyrazol-4-yl)-9H-purin-6-yl]spiro[indole-3,4′-piperidin]-2(1H)-one] showed an IC50 of less than 50 nM. Work on `Cn1c(C(=O)NCc2cccs2)nc2c(N3CCC4(CC3)C(=O)Nc3ccccc34)ncnc21` [Compound 20, 9-methyl-6-(2-oxo-1,2-dihydro-1′H-spiro[indole-3,4′-piperidin]-1′-yl)-N-(2-thienylmethyl)-9H-purine-8-carboxamide] yielded an IC50 of 50 to 250 nM. `Cn1c(C(=O)NCC2CC2)nc2c(N3CCC4(CC3)OCc3ccccc34)ncnc21` [Compound 132, N-(cyclopropylmethyl)-9-methyl-6-(1′H,3H-spiro[2-benzofuran-1,4′-piperidin]-1′-yl)-9H-purine-8-carboxamide] showed an IC50 of 500 to 1500 nM. Compound `Cn1c(-c2ccncc2)nc2c(N3CCC(n4c(=O)[nH]c5ccccc54)CC3)ncnc21` [Compound 266, 1-[1-(9-methyl-8-pyridin-4-yl-9H-purin-6-yl)piperidin-4-yl]-1,3-dihydro-2H-benzimidazol-2-one] has an IC50 of 250 to 500 nM. Compound `Cn1c(-c2ccc(O)nc2)nc2c(N3CCC(n4c(=O)[nH]c5ccccc54)CC3)ncnc21` [Compound 300, 1-{1-[8-(6-hydroxypyridin-3-yl)-9-methyl-9H-purin-6-yl]piperidin-4-yl}-1,3-dihydro-2H-benzimidazol-2-one] has an IC50 of 500 to 1500 nM.
